Laboratory results from patent US10688189B1, “Modulated guanidine-containing polymers or nanoparticles” (THE FLORIDA INTERNATIONAL BOARD OF TRUSTEES, priority 2017, dated 2020).
Each block holds one compound with its values, some of them ahead of it.

What was measured:
CFTR = biological target: T1, CFTR (Homo sapiens, UniProt P13569); assay: Ussing chamber apical CFTR activity in NHBE cells; type: cell-based; details: FIG. 12
T1 construct: CFTR is located at the apical side (mucosal) of the airway epithelium; endogenous in cells; host or cells: primary NHBE cells, re-differentiated 21 days at the air-liquid interface
Excerpt: Ussing chamber electrophysiology was used to confirm re-differentiation and polarization as per: Unwalla et al., Am. J. Respir. Cell. Mol. Biol. 2015, 52 (1), 65-74; and Chinnapaiyan et al., Sci Rep. 2018, 8(1), 7984. CFTR is located at the apical side (mucosal) of the airway epithelium. Briefly, NHBE cultures were re-differentiated at the air-liquid interface. Following re-differentiation for 21 days, the snap wells were removed from supports and mounted in Ussing chambers. The short circuit current was measured and allowed to stabilize followed by addition of amiloride (10 μM) added apically to eliminate epithelial sodium channel (ENaC) influences. CFTR activation was affected by addition of albuterol (10 μM) and change in short circuit current (ΔISC) was determined. CFTR specificity was confirmed by addition of CFTR inhibitor CFTRinh172 (20 μM) and the decrease in ΔISC was recorded.

[1] = cited from earlier work

T1 sequence (P13569 whole entry): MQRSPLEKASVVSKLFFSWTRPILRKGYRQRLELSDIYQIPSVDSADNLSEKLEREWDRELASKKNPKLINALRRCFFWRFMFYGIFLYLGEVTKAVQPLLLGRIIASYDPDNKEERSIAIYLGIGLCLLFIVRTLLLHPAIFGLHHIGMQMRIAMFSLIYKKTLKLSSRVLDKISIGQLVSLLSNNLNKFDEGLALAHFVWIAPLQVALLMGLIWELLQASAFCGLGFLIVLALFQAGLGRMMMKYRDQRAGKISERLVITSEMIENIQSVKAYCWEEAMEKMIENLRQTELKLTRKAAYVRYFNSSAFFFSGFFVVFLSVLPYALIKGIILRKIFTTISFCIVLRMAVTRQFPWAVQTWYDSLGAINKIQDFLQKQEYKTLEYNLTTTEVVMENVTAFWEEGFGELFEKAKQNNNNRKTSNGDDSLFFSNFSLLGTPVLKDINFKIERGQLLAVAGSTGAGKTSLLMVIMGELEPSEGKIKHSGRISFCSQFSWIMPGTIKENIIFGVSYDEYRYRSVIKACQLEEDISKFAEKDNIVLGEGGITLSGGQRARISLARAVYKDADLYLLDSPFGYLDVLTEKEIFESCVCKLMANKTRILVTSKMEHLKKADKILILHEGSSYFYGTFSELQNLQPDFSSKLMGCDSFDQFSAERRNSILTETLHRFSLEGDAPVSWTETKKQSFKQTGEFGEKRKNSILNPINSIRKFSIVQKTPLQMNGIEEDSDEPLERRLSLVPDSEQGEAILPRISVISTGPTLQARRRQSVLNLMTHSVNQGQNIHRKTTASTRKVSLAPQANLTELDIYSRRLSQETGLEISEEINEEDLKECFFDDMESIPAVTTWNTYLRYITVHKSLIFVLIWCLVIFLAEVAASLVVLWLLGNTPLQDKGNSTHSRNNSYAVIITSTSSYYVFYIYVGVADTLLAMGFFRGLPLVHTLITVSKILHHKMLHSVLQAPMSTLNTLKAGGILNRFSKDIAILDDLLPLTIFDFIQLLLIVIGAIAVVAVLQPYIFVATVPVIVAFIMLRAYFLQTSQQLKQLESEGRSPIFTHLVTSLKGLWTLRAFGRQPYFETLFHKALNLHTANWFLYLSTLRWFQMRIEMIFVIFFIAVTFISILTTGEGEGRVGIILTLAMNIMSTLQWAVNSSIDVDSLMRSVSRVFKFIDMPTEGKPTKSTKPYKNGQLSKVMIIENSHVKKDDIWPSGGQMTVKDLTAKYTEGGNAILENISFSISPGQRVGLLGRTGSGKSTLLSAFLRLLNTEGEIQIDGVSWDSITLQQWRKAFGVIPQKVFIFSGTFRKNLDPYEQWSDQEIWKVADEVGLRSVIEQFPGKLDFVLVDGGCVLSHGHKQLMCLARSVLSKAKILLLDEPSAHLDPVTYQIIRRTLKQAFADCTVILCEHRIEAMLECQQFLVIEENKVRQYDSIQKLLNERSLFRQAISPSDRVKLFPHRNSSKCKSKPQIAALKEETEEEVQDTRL

short circuit current after CFTR inhibitor (CFTR; 20 μM after albuterol): decreased current
SMILES: O=C(O)c1ccc(/C=C2\SC(=S)N(c3cccc(C(F)(F)F)c3)C2=O)cc1 [CFIRinh172]

SMILES: CC(C)(C)NCC(O)c1ccc(O)c(CO)c1 (stereo not drawn) [albuterol]
short circuit current on CFTR activation (CFTR; albuterol 10 μM after amiloride): sharp current increase occurs immediately

SMILES: N=C(N)N [Guanidine]
pKa value of protonated counterpart [1]: 12.48
